The target of data set [1] is T1, Heat shock protein HSP 90 (Oryctolagus cuniculus) (UniProt P11500).
T1 sequence (whole entry): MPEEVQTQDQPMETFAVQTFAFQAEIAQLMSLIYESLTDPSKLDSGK
As to the kind of experiment: Inhibition of HSP90 in rabbit reticulocyte lysate at 250 uM after 90 mins by luciferase renaturation assay.

Data set [2] deals with T2, Heat shock protein HSP 90-beta (Homo sapiens, UniProt P08238). In words: Inhibition of HSP90 in human MDA-kb2 cells assessed as reduction in glucocorticoid receptor-dependent luciferase expression after 18 hrs by firefly luciferase reporter gene assay. Format: cell-based. For orientation: In a reporter assay the amount or activity of a reporter protein is the signal.
Data set [3] is described as follows: Cytotoxicity against human MDA-kb2 cells assessed as reduction in cell viability after 18 hrs by Promega cell titer-Glo assay. Format: functional. As to conditions: MDA-kb2, 18 h, read-out: LC50 (the source's name).
Data set [4] is described as follows: Solubility in phosphate buffer. Format: physicochemical.
Data set [5] addresses T3, Heat shock protein HSP 90 (Oryctolagus cuniculus, UniProt P11500).
T3 sequence (P11500 whole entry): T1 sequence (whole entry)
In words: Inhibition of HSP90 in rabbit reticulocyte lysate after 90 mins by luciferase renaturation assay.

Data set [6] has as its target T2, Heat shock protein HSP 90-beta. As to the kind of experiment: Binding affinity to human HSP90 using FITC-labeled compound at 1 nM by fluorescence polarization assay. On the technique in general: Polarisation of emitted light reports the rotation of a fluorescent probe.
The target is the same in data set [7]. In words: Binding affinity to human HSP90 using FAM-labeled compound by fluorescence polarization assay.
The test system of a further data set is MDA-kb2. In words: Induction of plasma membrane disruption in human MDA-kb2 cells. Format: functional, cell-based.

The source made the active and inactive calls. The calls are words filed in the database; no cut-off is given here. Bridge positions count the residues as written; N and C are the ends. Square brackets hold non-standard residues; d marks the D form. Peptide text beside a SMILES is read from it. * marks the point of attachment. 5FAM = O=C1OC2(c3ccc(O)cc3Oc3cc(O)ccc32)c2ccc(C(=O)*)cc21; S5 = C=CCCC[C@](C)(N)C(=O)O

T2 sequence (P08238 whole entry): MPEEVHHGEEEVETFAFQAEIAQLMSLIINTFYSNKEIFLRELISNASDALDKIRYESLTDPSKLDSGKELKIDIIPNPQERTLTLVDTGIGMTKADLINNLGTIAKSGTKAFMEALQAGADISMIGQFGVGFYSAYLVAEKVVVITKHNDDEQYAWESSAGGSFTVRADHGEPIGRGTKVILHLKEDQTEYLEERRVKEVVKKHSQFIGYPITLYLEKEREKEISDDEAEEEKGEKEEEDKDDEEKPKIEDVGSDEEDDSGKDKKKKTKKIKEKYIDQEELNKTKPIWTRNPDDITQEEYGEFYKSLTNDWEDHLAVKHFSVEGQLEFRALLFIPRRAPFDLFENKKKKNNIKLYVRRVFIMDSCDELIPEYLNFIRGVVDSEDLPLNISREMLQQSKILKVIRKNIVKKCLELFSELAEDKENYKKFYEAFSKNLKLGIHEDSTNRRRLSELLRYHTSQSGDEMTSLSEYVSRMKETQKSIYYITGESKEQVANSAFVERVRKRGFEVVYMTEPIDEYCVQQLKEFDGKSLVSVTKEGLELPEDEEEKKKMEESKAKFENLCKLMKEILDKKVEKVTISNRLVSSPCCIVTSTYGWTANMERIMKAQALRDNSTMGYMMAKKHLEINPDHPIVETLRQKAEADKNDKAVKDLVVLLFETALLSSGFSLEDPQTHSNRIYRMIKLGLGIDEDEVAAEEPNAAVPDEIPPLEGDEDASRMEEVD

Broadly, the IC50 is the concentration that inhibits the measured activity by half. Usually solubility stands for the dissolved amount per volume that the medium holds. Low readings indicate a poorly soluble substance, high ones a readily soluble substance. Regarding Ac-DPQTHANRIYRMIKLLLG-NH2, the inhibition entry in data set [1] is “Active”. Further, the IC50 in data set [2] is 18.6 µM. Besides, in data set [3], the CC50 was 22.9 µM. Also, the solubility in data set [4] is ≥ 100 µM.
For `CO[C@@H]1[C@@H](OC(N)=O)[C@@H](O)[C@H](Oc2ccc3c(O)c(NC(=O)c4ccc(O)c(CC=C(C)C)c4)c(=O)oc3c2C)OC1(C)C` [NOVOBIOCIN], the inhibition entry in data set [1] was “Active”. Further, in data set [3], the CC50 was found to be 690 µM.
For the compound Ac-FQAEIAQLMSLIINTFY-NH2, the inhibition result in data set [1] was “inactive”.
In the case of `CSCC[C@@H]1NC(=O)[C@H](CCCNC(=N)N)NC(=O)[C@H](Cc2ccc(O)cc2)NC(=O)[C@@H](NC(=O)[C@H](CCCNC(=N)N)NC(=O)[C@H](CC(N)=O)NC(=O)[C@H](C)NC(=O)[C@H](Cc2cnc[nH]2)NC(=O)[C@@H](NC(=O)[C@H](CCC(N)=O)NC(=O)[C@@H]2CCCN2C(=O)[C@H](CC(=O)O)NC(C)=O)[C@@H](C)O)CCCCNC(=O)C[C@@H](C(=O)N[C@@H](CCCCN)C(=O)N[C@@H](CC(C)C)C(=O)NCC(=O)N[C@@H](CC(C)C)C(=O)NCC(N)=O)NC1=O` (Ac-DPQTHANRKYRMDKLGLG-NH2; lactam 9-13), the IC50 was 168 µM in data set [5] and > 120 µM in data set [2]. Also, in data set [3], the CC50 is > 120 µM. The solubility in data set [4] was ≥ 100 µM.
With `CC[C@H](C)[C@H](NC(=O)[C@H](CCCNC(=N)N)NC(=O)[C@H](CC(N)=O)NC(=O)[C@H](C)NC(=O)[C@H](Cc1cnc[nH]1)NC(=O)[C@@H](NC(=O)[C@H](CCC(N)=O)NC(=O)[C@@H]1CCCN1C(=O)[C@H](CC(=O)O)NC(C)=O)[C@@H](C)O)C(=O)N[C@@H](Cc1ccc(O)cc1)C(=O)N[C@@H](CCCNC(=N)N)C(=O)N[C@H]1CCCCNC(=O)C[C@@H](C(=O)N[C@@H](CC(C)C)C(=O)NCC(N)=O)NC(=O)[C@H](CC(C)C)NC(=O)[C@H](CCCCN)NC(=O)[C@H]([C@@H](C)CC)NC1=O` (Ac-DPQTHANRIYRKIKLDLG-NH2; lactam 12-16), the IC50 in data set [5] was 137 µM; in data set [2] it was > 67 µM. In data set [3], the CC50 was > 67 µM. Also, the solubility in data set [4] was ≥ 100 µM.
On to `CO[C@H]1/C=C\C=C(/C)C(=O)NC2=CC(=O)C(NCCCCCCNC(=S)Nc3ccc(-c4c5ccc(=O)cc-5oc5cc(O)ccc45)c(C(=O)O)c3)=C(C[C@@H](C)C[C@H](OC)[C@H](O)[C@@H](C)/C=C(\C)[C@@H]1OC(N)=O)C2=O`, for which the outcome in data set [6] was Active.
In the case of Ac-DPQTHANRIYRLIKLGLG-NH2, in data set [1], the inhibition entry was “Active”.
For `CC[C@H](C)[C@H](NC(=O)[C@H](CCCNC(=N)N)NC(=O)[C@H](CC(N)=O)NC(=O)[C@H](C)NC(=O)[C@H](Cc1cnc[nH]1)NC(=O)[C@@H](NC(=O)[C@H](CCC(N)=O)NC(=O)[C@@H]1CCCN1C(=O)[C@H](CC(=O)O)NC(=O)c1ccc2c(c1)C(=O)OC21c2ccc(O)cc2Oc2cc(O)ccc21)[C@@H](C)O)C(=O)N[C@@H](Cc1c[nH]c2ccccc12)C(=O)N[C@@H](CCCNC(=N)N)C(=O)N[C@@H](CCSC)C(=O)N[C@H](C(=O)N[C@@H](CCCCN)C(=O)N[C@@H](CC(C)C)C(=O)N[C@@H](Cc1c[nH]c2ccccc12)C(=O)N[C@@H](CC(C)C)C(=O)N[C@@H](CC(=O)O)C(N)=O)[C@@H](C)CC` (5FAM-DPQTHANRIWRMIKLWLD-NH2), the result in data set [7] was inactive.
Take Ac-DPQTHANRIYRMIKLGLG-NH2: the inhibition result in data set [1] is “Active”. In addition, the IC50 was 233 µM in data set [5] and > 160 µM in data set [2]. In addition, the CC50 in data set [3] is > 160 µM. For the same compound, the solubility in data set [4] was ≥ 100 µM.
In the case of `CC[C@H](C)[C@H](NC(=O)[C@H](CCCNC(=N)N)NC(=O)[C@H](CC(N)=O)NC(=O)[C@H](C)NC(=O)[C@H](Cc1cnc[nH]1)NC(=O)[C@@H](NC(=O)[C@H](CCC(N)=O)NC(=O)[C@@H]1CCCN1C(=O)[C@H](CC(=O)O)NC(C)=O)[C@@H](C)O)C(=O)N[C@@H](Cc1c[nH]c2ccccc12)C(=O)N[C@@H](CCCNC(=N)N)C(=O)N[C@@H](CCSC)C(=O)N[C@H](C(=O)N[C@H]1CCCCNC(=O)C[C@@H](C(N)=O)NC(=O)[C@H](CC(C)C)NC(=O)[C@H](Cc2c[nH]c3ccccc23)NC(=O)[C@H](CC(C)C)NC1=O)[C@@H](C)CC` (Ac-DPQTHANRIWRMIKLWLD-NH2; lactam 14-18), the 50% inhibitory concentration (IC50) was determined as 4.11 µM in data set [5] and 0.73 µM in data set [2]. For the same compound, the CC50 in data set [3] was 1.86 µM. Besides, the solubility in data set [4] is ≥ 100 µM. Moreover, the result in the data set on MDA-kb2 was Active.
Regarding `C=CCCC[C@](C)(NC(=O)[C@H](CC(C)C)NC(=O)[C@H](CCCCN)NC(=O)[C@@H](NC(=O)[C@](C)(CCCC=C)NC(=O)[C@H](CCCNC(=N)N)NC(=O)[C@H](Cc1ccc(O)cc1)NC(=O)[C@@H](NC(=O)[C@H](CCCNC(=N)N)NC(=O)[C@H](CC(N)=O)NC(=O)[C@H](C)NC(=O)[C@H](Cc1cnc[nH]1)NC(=O)[C@@H](NC(=O)[C@H](CCC(N)=O)NC(=O)[C@@H]1CCCN1C(=O)[C@H](CC(=O)O)NC(C)=O)[C@@H](C)O)[C@@H](C)CC)[C@@H](C)CC)C(=O)N[C@@H](CC(C)C)C(=O)NCC(N)=O` (Ac-DPQTHANRIYR[S5]IKL[S5]LG-NH2), the CC50 in data set [3] was 19.1 µM. For the same compound, in data set [4], the solubility was ≥ 100 µM.
With `CC[C@H](C)[C@H](NC(=O)[C@H](CCCNC(=N)N)NC(=O)[C@H](CC(N)=O)NC(=O)[C@H](C)NC(=O)[C@H](Cc1cnc[nH]1)NC(=O)[C@@H](NC(=O)[C@H](CCC(N)=O)NC(=O)[C@@H]1CCCN1C(=O)[C@H](CC(=O)O)NC(C)=O)[C@@H](C)O)C(=O)N[C@@H](Cc1ccc(O)cc1)C(=O)N[C@@H](CCCNC(=N)N)C(=O)N[C@@]1(C)CCC/C=C/CCC[C@@](C)(C(=O)N[C@@H](CC(C)C)C(=O)NCC(N)=O)NC(=O)[C@H](CC(C)C)NC(=O)[C@H](CCCCN)NC(=O)[C@H]([C@@H](C)CC)NC1=O` (Ac-DPQTHANRIYR[S5]IKL[S5]LG-NH2; staple (E) 12-16), the IC50 in data set [5] was 37.9 µM; in data set [2] it was 18.8 µM. Further, the CC50 in data set [3] amounted to 26.6 µM. The solubility in data set [4] is ≥ 100 µM.
Regarding `CO[C@H]1[C@H](OC(=O)c2ccc(C)[nH]2)[C@H](O)[C@@H](Oc2ccc3c(O)c(NC(=O)c4c[nH]c(C(=O)Nc5c(O)c6ccc(O[C@H]7OC(C)(C)[C@@H](OC)[C@H](OC(=O)c8ccc(C)[nH]8)[C@@H]7O)c(C)c6oc5=O)c4C)c(=O)oc3c2C)OC1(C)C` [COUMERMYCIN A1], the IC50 came to 28.1 µM in data set [5] and 15.3 µM in data set [2]. The CC50 in data set [3] came to 19.1 µM.
Consider Ac-DPQTHANRIYRMIKLGNG-NH2, for which the inhibition entry in data set [1] is “Active”.
`CC[C@H](C)[C@H](NC(=O)[C@H](CCCNC(=N)N)NC(=O)[C@H](CC(N)=O)NC(=O)[C@H](C)NC(=O)[C@H](Cc1cnc[nH]1)NC(=O)[C@@H](NC(=O)[C@H](CCC(N)=O)NC(=O)[C@@H]1CCCN1C(=O)[C@H](CC(=O)O)NC(C)=O)[C@@H](C)O)C(=O)N[C@@H](Cc1ccc(O)cc1)C(=O)N[C@@H](CCCNC(=N)N)C(=O)N[C@@H](CCSC)C(=O)N[C@H](C(=O)N[C@H]1CCCCNC(=O)C[C@@H](C(=O)O)NC(=O)[C@H](CC(C)C)NC(=O)CNC(=O)[C@H](CC(C)C)NC1=O)[C@@H](C)CC` (Ac-DPQTHANRIYRMIKLGLD-OH; lactam 14-18): the IC50 in data set [5] was found to be 37 µM; in data set [2], 121 µM. Besides, the CC50 in data set [3] came out at 97 µM. The solubility in data set [4] is ≥ 100 µM.
Take Ac-DPQTHANRIYRMIKLWLG-NH2: in data set [3], the CC50 stood at 18.9 µM. The solubility in data set [4] is ≥ 100 µM. For the same compound, the result in the data set on MDA-kb2 was Active.
Regarding `COC1=C2C[C@@H](C)C[C@H](OC)[C@H](O)[C@@H](C)/C=C(\C)[C@H](OC(N)=O)[C@@H](OC)/C=C\C=C(/C)C(=O)NC(=CC1=O)C2=O` [GELDANAMYCIN], the CC50 in data set [3] was > 2 µM.
As for Ac-DPQTHANRIWRMIKLGLG-NH2, the inhibition result in data set [1] is “Active”.
As for `CC[C@H](C)[C@H](NC(=O)[C@H](CCCNC(=N)N)NC(=O)[C@H](CC(N)=O)NC(=O)[C@H](C)NC(=O)[C@H](Cc1cnc[nH]1)NC(=O)[C@@H](NC(=O)[C@H](CCC(N)=O)NC(=O)[C@@H]1CCCN1C(=O)[C@H](CC(=O)O)NC(C)=O)[C@@H](C)O)C(=O)N[C@@H](Cc1ccc(O)cc1)C(=O)N[C@@H](CCCNC(=N)N)C(=O)N[C@@H](CCSC)C(=O)N[C@H](C(=O)N[C@H]1CCCCNC(=O)C[C@@H](C(N)=O)NC(=O)[C@H](CC(C)C)NC(=O)[C@H](Cc2c[nH]c3ccccc23)NC(=O)[C@H](CC(C)C)NC1=O)[C@@H](C)CC` (Ac-DPQTHANRIYRMIKLWLD-NH2; lactam 14-18), the IC50 in data set [5] was 8.43 µM; in data set [2] it was > 27 µM. In data set [3], the CC50 is > 27 µM. Further, the solubility in data set [4] is ≥ 100 µM.
Turning to Ac-DPFTHANRIYRMIKLGLG-NH2, in data set [1], the inhibition result is “Active”.
Regarding Ac-DPQTFANRIYRMIKLGLG-NH2, the inhibition entry in data set [1] is “Active”.

The values are drawn from ChEMBL document CHEMBL3351937, “Potential C-terminal-domain inhibitors of heat shock protein 90 derived from a C-terminal peptide helix” (Bioorg Med Chem, 2014).
